| SMILES | melting point |
| --- | --- |
| CC(C)c1ccc(-c2ccc(-c3ccccc3)s2)s1 | 104 to 106 °C |
| Cc1cc(NC(=O)NC(=O)c2ccccc2N2CCOCC2)ccc1Oc1ncc(Br)cn1 | 67 to 70 °C |
| CCOc1ccc(Nc2ncc3cc(-c4c(Cl)cccc4Cl)c(=O)n(CC)c3n2)cc1 | 192 to 194 °C |
| COc1nsc(NC(=O)CBr)n1 | 198 to 199 °C |
| Cc1c(NC(=O)NCC(C)O)c(C)c2c(c1-c1ccccc1)OCC2c1ccc(C(C)C)cc1 (stereo unspecified) | 171 to 182 °C |
| CC1(c2nn(-c3c(Cl)cc(C(F)(F)F)cc3Cl)c(N)c2C#N)CC1(Cl)Cl (stereo unspecified) | 209 to 210 °C |
| COC(=O)c1nc2sc(CC(C)C)c(C)c2c(=O)[nH]1 | 173 to 175 °C |
| C[Si](C)(C)C#Cc1cn(-c2c(Cl)cc(C(F)(F)F)cc2Cl)nc1C(F)(F)F | 105 to 108 °C |
| CC(C)N(CCn1c(-c2ccc(O)cc2)cc2c1CCCC2)C(C)C | 112 to 114 °C |
| CC(C)(C)CC(C)(C)c1cc(-n2nc3ccccc3n2)c(O)c(C(C)(C)c2ccccc2)c1 | 109 to 111 °C |
| Cc1cc(Nc2ccnc(Cl)n2)ccc1F | 130 to 131 °C |
| C[C@H](CN(O)C(N)=O)NC(=O)OC(C)(C)C | 156 to 160 °C |
| Cc1cnc(CCl)n2c1c(CCCl)c1ccccc12 | 160 to 161 °C |
| COC(=O)Nc1cc(F)ccc1C(=O)O | 162 °C |
| CC1(COC(=O)N2CC=C(c3ccc(C(F)(F)F)cc3)CC2)Cn2cc([N+](=O)[O-])nc2O1 (stereo unspecified) | 113 to 115 °C |
| COc1ccc(C[C@@H]2COc3ccc(OCc4nc5cc(F)ccc5s4)cc3[C@@H]2O)cc1C(=O)O (relative stereo) | 149 to 151 °C |
| CCOC(=O)c1cc(OC(C)=O)c2c(OC)ccc(OC)c2c1 | 110 to 112 °C |
| CC(=O)N1CCc2c(c3ccc(-n4ccc(OCc5ccc(F)cn5)cc4=O)cc3n2C)C1 | 220 to 224 °C |
| O=C(O)Cc1cccc2c(=O)cc(-c3c(F)c(F)c(F)c(F)c3F)oc12 | 156 to 160 °C |
| CCOC(CCc1c(N(C(C)=O)C(C)=O)nc(NC(C)=O)[nH]c1=O)OCC | 126 to 137 °C |
| CCOC(=O)c1[nH]c2ccc(Cl)cc2c1N | 126 to 127 °C |
| O=S(=O)(CCO)c1ccc(S(=O)(=O)CCO)cc1 | 209 to 212 °C |

| SMILES | melting point |
| --- | --- |
| CC(=O)Oc1c(OC(C)=O)c([C@H]2CC[C@H](c3ccc(Cl)cc3)CC2)c(OC(C)=O)c2ccccc12 | 177 to 179 °C |
| N#Cc1cccc(C2=Nc3cc(CO)c(C#Cc4ccccc4)cc3NC(=O)C2)c1 | > 255 °C |
| CCc1c2n(c3ccccc13)C(=O)C(Cc1nc[nH]c1C)CC2 (stereo unspecified) | 222 to 224 °C |
| COCc1nc(N)nc(N)c1-c1ccc(Cl)cc1Cl | 183 to 185 °C |
| CCOC(=O)COc1cc2cc(CC)sc2c(Cl)c1Cl | 67 to 68 °C |
| CCn1c(-c2ccc(Cl)cc2)n[nH]c1=O | 188 to 189 °C |
| CC(C)Oc1c(CO)cnc2c(Cl)cccc12 | 88 to 89 °C |
| OCc1conc1-c1ccc(F)c(Br)c1 | 93 to 94 °C |
| CC(=O)Nc1ncc(/C=C\c2ccc([N+](=O)[O-])cc2)s1 | 221 to 223 °C |
| O=C(O)c1ccc(OCCCCO)cc1 | 124 °C |
| CCCc1ccc(-c2ccc(-c3ccc(OC)cc3)nn2)cc1 | 128 to 130 °C |
| CC1CCN(C2C3=CC(OC3=O)C3C(CC4(C)OC4C2OC(=O)c2ccccc2)OC(=O)C3C)CC1 (stereo unspecified) | 234 °C |
| Oc1ccc(-c2nc3cc(Cl)c(O)cc3o2)cc1 | 254 to 256 °C |
| CC(C)n1nc(-c2nc(-c3nc(-c4ccccc4)cs3)c(N)nc2-c2ccccc2)ccc1=O | 240 to 242 °C |
| COC(=O)Cn1c(C(=O)OCc2ccccc2)cc2cc(C)cc(C)c21 | 91 to 93 °C |
| CCOC(=O)C1=C(C)NC(CSC(=O)CCC2CCCCC2)=C(C(=O)OCC)C1c1cccc([N+](=O)[O-])c1 (stereo unspecified) | 109 to 112 °C |
| COc1ccc(CN2CCN(C(=S)C3(C)CCc4c(C)c(O)c(C)c(C)c4O3)CC2)c(OC)c1OC (stereo unspecified) | 124 to 125 °C |
| O=[N+]([O-])N=c1ccccn1Cc1ccc(Cl)nc1 | 209 to 212 °C |
| CCCNC(=O)C(C)=Cc1ccc2c(c1)c(Cc1ccc(C(=O)O)cc1OC)cn2C | 89 to 95 °C |
| COC(=O)c1ccc(C(=O)NCc2cc(O)cc(O)c2)cc1Cl | 152 to 155 °C |
| C=CCN1CC(=O)N2CCC[C@H]2C1=O | 106 to 109 °C |
| O=C(O)CN(CCN(CC(=O)O)C(Cc1ccccc1)C(=O)O)CC(=O)O (stereo unspecified) | 120 °C |

| SMILES | melting point |
| --- | --- |
| O=C(O)c1ccc(OCCCc2cc(-c3ccc(C(F)(F)F)cc3)no2)cc1 | 221 to 222 °C |
| O=C(Cn1cc(-c2ccc3nnn(Cc4ccc5ncccc5c4)c3n2)cn1)N1CCCC1 | 136 to 138 °C |
| CCCCCC(CC(=O)O)c1cc(C(=O)OC)c(OC)cc1OC (stereo unspecified) | 106 to 107 °C |
| CSc1sc(C(=O)O)c2c1-c1oc(C)nc1CC2 | > 300 °C |
| O=C(O)c1cccc([N+](=O)[O-])c1SCCO | 91 to 93 °C |
| O=C(O)CN(C(=O)OCc1ccccc1)C1CCCC1 | 110 °C |
| COC1(c2cnc(OCc3ccc(/C(C)=N/O)cc3)s2)CCOCC1 | 107 to 109 °C |
| COC1CCCC(C2NC(=O)C2C(C)O[Si](C)(C)C(C)(C)C)C1O (stereo unspecified) | 146 to 148 °C |
| CCOC(=O)c1c(OCc2ccccc2)cc(C(F)(F)F)nc1C(F)(F)F | 56 to 58.5 °C |
| O=C(O)Cc1cc(Cl)ccc1Oc1ccccc1 | 119 to 123 °C |
| CC1(C)OCC(c2nc3c(C(F)(F)F)cccc3c(O)c2C(=O)Nc2nccs2)O1 (stereo unspecified) | 250 °C |
| CN(C)c1c(C(N)=O)cnc2c(NC(=O)c3c(Cl)cccc3Cl)cccc12 | 222 to 223 °C |
| COC(=O)c1ccc(CC#N)cc1S(=O)(=O)NC(=O)Nc1nc(OC)cc(OC)n1 | 177 to 179 °C |
| CS(=O)(=O)C1CCCC1Br (stereo unspecified) | 50 to 52 °C |
| Cc1cccc(-c2nc3ccccn3c2-c2ccnc(-c3ccc(CN4CCOCC4)cc3)c2)n1 | 156 °C |
| O=C(O)COc1ccc2c(c1)Cc1sc(SCCC(c3ccccc3)c3ccccc3)nc1-2 | 135 to 137 °C |
| CC(=O)c1ccc(-c2ccccc2)cc1O | 90 to 92 °C |
| NC(=O)c1sc2nccc(N3CCOCC3)c2c1N | 232 to 234 °C |
| CCCC1Sc2nncn2N=C1c1ccc2c(c1)NC(=O)CO2 (stereo unspecified) | 235 to 237 °C |
| O=C(NNC(c1ccccc1)(c1ccccc1)c1ccccc1)c1ccccc1 | 130 to 131 °C |

Results, then the compound that gave them:

| melting point | SMILES |
| --- | --- |
| 129 to 130 °C | ONC(=S)C=Cc1cccc2ccccc12 |
| 63 to 66 °C | COC(=O)COc1ccc(C(=O)OCc2ccccc2)cc1 |
| 106 to 109 °C | CS(=O)(=O)CC(O)(Cn1cncn1)C(F)(F)C(F)(F)C(F)(F)C(F)(F)F (stereo unspecified) |
| 125 to 126 °C | CCc1cn(C2CC(O)C(CN=[N+]=[N-])O2)c(=O)nc1NC(=O)c1ccccc1 (stereo unspecified) |
| 112 to 113 °C | Cc1ccc(S(=O)(=O)Oc2cccc3c2CCCN3)cc1 |
| 113 °C | O=C(c1ccc(F)cc1)c1cc2ccsc2s1 |
| 185 to 190 °C | NS(=O)(=O)c1ccc(NC(=O)CCl)cc1C(F)(F)F |
| 202 to 203 °C | NC(=O)c1ccc(-c2cccc3cc(Cc4cc(F)cc(Cl)c4)sc23)cc1 |
| 119 to 121 °C | O=C(Nc1ccnc(Cl)c1)NC1CCCC1 |
| 188 to 190 °C | COc1cc(OC)nc(NC(=O)NS(=O)(=O)c2c([Si](C)(C)C)ccc3c2S(=O)(=O)C(C)C3)n1 (stereo unspecified) |
| 100 to 103 °C | O=C(Nc1cccc(-n2ccnc2)c1)c1ccn(-c2ccccc2)c1 |
| 140 to 146 °C | CC(=O)NC[C@H]1CN(c2ccc(N3CCNC(=O)CC3)c(F)c2)C(=O)O1 |
| 162 to 164 °C | CC(=O)c1cccc(Oc2ncccc2C(=O)NCc2ccc(S(N)(=O)=O)cc2)c1 |
| 125 to 131 °C | COc1cc(OCc2ccccn2)ccc1/C=C/c1cc(/C=C/c2cc([N+](=O)[O-])c3cc[nH]c3c2)[nH]n1 |
| 168 to 172 °C | Cc1nc(N2CCc3ccccc3CC2)c(C#N)c(=O)n1O |
| 154 to 156 °C | CC(=CC(=O)c1cccs1)N1CCCC1 |
| 189 to 192 °C | N#Cc1cc(-c2ccoc2)c2ccc(COc3cc(F)cc(-c4cc(F)cc(F)c4)c3)cc2n1 |
| 153 to 154 °C | CCCn1c(=O)c(C=O)c2n(c1=O)CCCS2 |
| 124 to 125 °C | O=C(CCc1ccc(I)cc1)Cn1ccnc1 |

| melting point | SMILES |
| --- | --- |
| 301 to 302 °C | Cc1cccc(-n2nc(C)c3c(=O)c4cc(F)c(F)cc4[nH]c32)n1 |
| 75 to 85 °C | C[C@@H](S[C@H]1CO[C@H](/C=C/C=C/c2ccc(OCC(F)(F)C(F)F)cc2)OC1)[C@](O)(Cn1cncn1)c1ccc(F)cc1F |
| 138 to 139 °C | CCSC1(c2ccc(Cl)cc2)OC(c2ccncc2)=Nc2ccccc21 (stereo unspecified) |
| 206 to 207 °C | CC(C)(C)OC(=O)c1nc(-c2ccc(Cl)cc2)[nH]c1-c1ccncc1 |
| 143 to 144 °C | COC(=O)c1c(C(=O)OC)c2sc3ccccc3n2c1C |
| 106 to 108 °C | COCC1CN(c2ccc(C3=CCCCC3)cc2)C(=O)O1 (racemic) |
| 227 to 229 °C | Cc1ccc(-c2nc3ccc(C(=O)O)cn3c2CN(C)C(=O)CC(C)C)cc1 |
| 45 to 46 °C | CCOC(=O)c1cnn(-c2ccccc2[N+](=O)[O-])c1C(=O)OCC |
| 121 to 123 °C | CCCCc1ccc(N2CCN(C(=O)Nc3nc(C)c(C)nc3OC)CC2)cc1 |
| 254 to 257 °C | CC1(C)Cc2ccccc2C1c1cnccc1C(=O)O (stereo unspecified) |
| 312 to 313 °C | O=c1[nH]c2ccncc2c2nc(-c3ccco3)nn12 |
| 218 to 221 °C | CNCC(C(=O)O)c1ccc(O)cc1 (stereo unspecified) |
| 86 to 88 °C | O=C(NCCCCn1ccnc1)c1ccc(Cl)c(Cl)c1 |
| 137 to 144 °C | FC(F)(F)c1[nH]c(-c2cccc(Cl)c2)nc1Br |
| 255 to 260 °C | O=C1c2cccc3c([N+](=O)[O-])ccc(c23)C(=O)N1O |
| 69 to 74 °C | N=C(N)N(CCCC(C=O)NC(=O)CNC(=O)CCc1ccccc1)C(=O)OCc1ccccc1 (stereo unspecified) |
| 133 to 134 °C | CC(C)(O)CCOc1c(-c2ccc(S(C)(=O)=O)cc2)cnn(-c2ccc(F)cc2)c1=O |
| 195 to 196 °C | O=C(O)C1CCc2c(c3cc(F)ccc3n2C(=O)c2ccc(F)cc2)C1 (stereo unspecified) |
